1 molecule from publication PMC7689712, “Characterization of ancestral myosin XI from Marchantia polymorpha by heterologous expression in Arabidopsis thaliana” (The Plant Journal, 2020) can be followed below.

The test addresses T1, Mp myosin XI-MD (Marchantia polymorpha, UniProt H3JRT9).
T1 construct: gene MyoXI; motor domain, residues 1-738; N-terminal FLAG tag (MDYKDDDDKRSMNSRPA), C-terminal GGG-Myc-His8 tag
T1 sequence (H3JRT9 1-738): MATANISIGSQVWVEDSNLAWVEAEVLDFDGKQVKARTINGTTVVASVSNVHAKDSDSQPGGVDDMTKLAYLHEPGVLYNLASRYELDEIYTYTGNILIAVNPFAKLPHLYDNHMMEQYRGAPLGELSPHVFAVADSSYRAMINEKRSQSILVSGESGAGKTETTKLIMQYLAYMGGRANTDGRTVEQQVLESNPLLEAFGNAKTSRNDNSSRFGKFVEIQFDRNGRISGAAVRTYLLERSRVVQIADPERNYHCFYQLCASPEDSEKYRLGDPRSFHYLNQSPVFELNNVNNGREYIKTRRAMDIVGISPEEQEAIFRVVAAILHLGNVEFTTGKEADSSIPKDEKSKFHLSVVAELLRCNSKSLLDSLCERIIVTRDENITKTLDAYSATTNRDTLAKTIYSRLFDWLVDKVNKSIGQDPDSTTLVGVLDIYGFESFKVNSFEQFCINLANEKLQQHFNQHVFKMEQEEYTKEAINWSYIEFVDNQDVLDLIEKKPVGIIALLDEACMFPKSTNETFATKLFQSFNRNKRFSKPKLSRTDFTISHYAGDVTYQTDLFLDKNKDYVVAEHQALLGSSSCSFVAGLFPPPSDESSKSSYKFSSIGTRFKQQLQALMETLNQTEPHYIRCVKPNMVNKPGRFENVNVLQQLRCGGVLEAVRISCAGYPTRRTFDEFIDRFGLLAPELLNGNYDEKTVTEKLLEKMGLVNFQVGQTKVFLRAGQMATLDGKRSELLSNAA
Briefly: steady-state actin-activated Mg2+-ATPase assay. The test is classed as biochemical. The settings on record: F-actin varied, 25 °C.

Take `Nc1ncnc2c1ncn2[C@@H]1O[C@H](COP(=O)(O)OP(=O)(O)OP(=O)(O)O)[C@@H](O)[C@H]1O` [ATP]: the “steady-state actin-activated Mg2+-ATPase assay” value is “we determined the maximum rate of ATP turnover (V max) and the actin concentration”.
